Like-named read-outs stand apart in the source and are kept apart here.
Molecular target: BTK (Homo sapiens (Human), UniProt Q06187)
Experiment: Btk in vitro inhibitory activity (one of Method A TR-FRET, Method B electrophoretic mobility shift, Method C radiometric filter binding)
Assay type: biochemical
[1] = determined using one of the methods of Example 355a, 355b and 355c, read-out: BTK IC50

BTK, sequence (Q06187 whole entry): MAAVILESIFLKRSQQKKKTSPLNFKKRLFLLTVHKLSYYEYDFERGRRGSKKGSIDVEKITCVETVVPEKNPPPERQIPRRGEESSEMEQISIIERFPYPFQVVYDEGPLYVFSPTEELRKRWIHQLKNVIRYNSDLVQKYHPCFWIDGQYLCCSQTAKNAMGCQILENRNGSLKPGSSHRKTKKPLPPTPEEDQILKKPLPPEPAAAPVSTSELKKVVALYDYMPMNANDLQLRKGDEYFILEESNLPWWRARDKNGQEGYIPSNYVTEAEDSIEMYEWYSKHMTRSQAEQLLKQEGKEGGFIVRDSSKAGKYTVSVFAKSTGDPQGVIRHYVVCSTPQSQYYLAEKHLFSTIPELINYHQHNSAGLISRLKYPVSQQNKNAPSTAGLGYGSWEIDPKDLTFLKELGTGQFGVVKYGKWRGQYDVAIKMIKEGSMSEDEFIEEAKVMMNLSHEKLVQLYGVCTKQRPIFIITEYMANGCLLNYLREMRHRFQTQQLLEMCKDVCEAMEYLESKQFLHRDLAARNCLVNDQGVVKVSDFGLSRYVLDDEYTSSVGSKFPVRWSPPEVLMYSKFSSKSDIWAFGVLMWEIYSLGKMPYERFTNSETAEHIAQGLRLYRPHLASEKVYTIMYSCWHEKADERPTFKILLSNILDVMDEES

| IC50 [1] [nM] | IC50 (read-out: Btk (IC50)) [nM] | IC50 (Btk (IC50)) [nM] | SMILES |
| --- | --- | --- | --- |
| < 10 | < 10 |  | CC(C)Oc1ccc(Nc2nc(N3CCC[C@@H](NC(=O)N(C)C)C3)cnc2C(N)=O)cc1 [Example 188, (R)-5-(3-(3,3-dimethylureido)piperidin-1-yl)-3-(4-isopropoxyphenylamino)pyrazine-2-carboxamide] |
| 10 to 100 |  | 10 to 100 | CN(C)CCOc1ccc(Nc2nc(N3CCC[C@@H](NC(=O)N(C)C)C3)cnc2C(N)=O)cc1 [Example 191, (R)-3-(4-(2-(dimethylamino)ethoxy)phenylamino)-5-(3-(3,3-dimethylureido)piperidin-1-yl)pyrazine-2-carboxamide] |
| 10 to 100 |  | 10 to 100 | CN(C)C(=O)N[C@@H]1CCCN(c2cnc(C(N)=O)c(Nc3ccc([N+](=O)[O-])cc3)n2)C1 [Example 192, (R)-5-(3-(3,3-dimethylureido)piperidin-1-yl)-3-(4-nitrophenylamino)pyrazine-2-carboxamide] |
| 10 to 100 |  | 10 to 100 | CN(C)Cc1ccc(Nc2nc(N3CCC[C@@H](NC(=O)N(C)C)C3)cnc2C(N)=O)cc1 [Example 193, (R)-3-(4-((dimethylamino)methyl)phenylamino)-5-(3-(3,3-dimethylureido)piperidin-1-yl)pyrazine-2-carboxamide] |
| < 10 | < 10 |  | CN(C)C(=O)N[C@@H]1CCCN(c2cnc(C(N)=O)c(Nc3ccc(C(=O)N(C)C)cc3)n2)C1 [Example 194, (R)-3-(4-(dimethylcarbamoyl)phenylamino)-5-(3-(3,3-dimethylureido)piperidin-1-yl)pyrazine-2-carboxamide] |

The remaining lines, values behind:

| SMILES | IC50 [1] [nM] | IC50 (read-out: Btk (IC50)) [nM] | IC50 (Btk (IC50)) [nM] |
| --- | --- | --- | --- |
| CN(C)C(=O)N[C@@H]1CCCN(c2cnc(C(N)=O)c(Nc3ccc(OC4CCCC4)cc3)n2)C1 [Example 189, (R)-3-(4-(cyclopentyloxy)phenylamino)-5-(3-(3,3-dimethylureido)piperidin-1-yl)pyrazine-2-carboxamide] | 10 to 100 |  | 10 to 100 |
| CN(C)C(=O)N[C@@H]1CCCN(c2cnc(C(N)=O)c(Nc3ccc(C(=O)N4CCCC4)cc3)n2)C1 [Example 195, (R)-5-(3-(3,3-dimethylureido)piperidin-1-yl)-3-(4-(pyrrolidine-1-carbonyl)phenylamino)pyrazine-2-carboxamide] | < 10 |  |  |
| CN(C)C(=O)N[C@@H]1CCCN(c2cnc(C(N)=O)c(Nc3ccc(C(=O)Nc4ccccn4)cc3)n2)C1 [Example 196, (R)-5-(3-(3,3-dimethylureido)piperidin-1-yl)-3-(4-(pyridin-2-ylcarbamoyl)phenylamino)pyrazine-2-carboxamide] | 10 to 100 |  |  |
| CN(C)C(=O)N[C@@H]1CCCN(c2cnc(C(N)=O)c(Nc3ccc(C(C)(C)C#N)cc3)n2)C1 [Example 197, (R)-3-(4-(2-cyanopropan-2-yl)phenylamino)-5-(3-(3,3-dimethylureido)piperidin-1-yl)pyrazine-2-carboxamide] | < 10 | < 10 |  |
| CN(C)C(=O)N[C@@H]1CCCN(c2cnc(C(N)=O)c(Nc3ccc(C(C)(C)C(N)=O)cc3)n2)C1 [Example 198, (R)-3-(4-(1-amino-2-methyl-1-oxopropan-2-yl)phenylamino)-5-(3-(3,3-dimethylureido)piperidin-1-yl)pyrazine-2-carboxamide] | 10 to 100 | 10 to 100 |  |
| CN(C)C(=O)N[C@@H]1CCCN(c2cnc(C(N)=O)c(Nc3ccc(C4(C#N)CC4)cc3)n2)C1 [Example 199, (R)-3-(4-(1-cyanocyclopropyl)phenylamino)-5-(3-(3,3-dimethylureido)piperidin-1-yl)pyrazine-2-carboxamide] | < 10 | < 10 |  |
| CN(C)C(=O)N[C@@H]1CCCN(c2cnc(C(N)=O)c(Nc3ccc(C4(CN)CC4)cc3)n2)C1 [Example 201, (R)-3-(4-(1-(aminomethyl)cyclopropyl)phenylamino)-5-(3-(3,3-dimethylureido)piperidin-1-yl)pyrazine-2-carboxamide] | 10 to 100 |  |  |

— patent US9656988B2 (Pharmacyclics LLC, priority 2013, dated 2017)
